Reference: patent publication US11903917B2, “MEK-inhibitor for the treatment of viral and bacterial infections” (priority 2017, dated 2024)

Experiments:
[1] = tested on: Streptococcus pneumoniae strain TIGR4 (serotype 4); assay: Over-night growth of Streptococcus pneumoniae (OD600, bacterial titers); assay type: cell-based; details: over night treatment
Protocol: (§1) Similar to S. aureus, the majority of Streptococcus pneumoniae strains express eukaryotic-like serine/threonine kinases, such as PknB, which are highly conserved between different genera. Additionally, these kinases share high homology to cellular MAP kinases (e.g. ERK, JNK, p38). […] Thus, the impact of PD-0184264 on different strains of Streptococci pneumonia was analyzed. Streptococcus pneumoniae strains can be divided into different serotypes, which differ in their virulence and overall pathogenicity. To test for a serotype- or strain-independent effect, we used the encapsulated strains D39 and TIGR4, which are both virulent, but belong to different serotypes. […] Then, the OD600 was measured again (Results shown in FIG. 11A) and dilution series were objected to BHI agar plates to determine bacterial titers (Results shown in FIG. 11B).

[2] = tested on: Streptococcus pneumoniae strain D39 wt (serotype 2); assay: as above; assay type: cell-based; details: over night treatment
Protocol: as §1

[3] = WST-Assay (cell viability); assay type: cell-based; details: human, A549 cells, FIG. 17C
Protocol: A549 cells were seeded in a 96-well flat-bottom tissue plate (Greiner, Germany) and were grown overnight. […] Thereafter, 10 μl WST-1 reagent (Roche, Germany) was added to the culture medium and incubated for four hours. During this time, the stable tetrazolium salt WST-1 was cleaved to a soluble formazan by metabolically active cells in the culture. After this incubation period, the formazan dye formed was quantitated with ELISA reader at 405 nm. The measured absorbance directly correlated to the number of viable cells.

[4] = tested on: S. aureus strain 6850; assay: Bacterial growth under heat stress (42° C., 6 h) after inhibitor treatment; assay type: cell-based, Staphylococcus aureus; details: 20 μM over night, then 42° C. for 6 h, strain 6850, vs solvent
Protocol: (§2) As the kinase is known to play an important role in bacterial stress resistance, bacterial growth under heat stress was monitored after treatment of the bacteria with the inhibitor PD-0184264. S. aureus strain 6850 and MRSA strain USA300 were treated over night with either solvent or 20 μM of the PD-0184264. The next day subcultures with the same amount of bacteria were prepared (confirmed by OD600 and plating on BHI agar) and further incubated at 42° C. for 6 h. Bacterial titers were then calculated via plating of serial dilutions on BHI agar plates. […] This is both observed for the methicillin-sensitive strain 6850 (black bars) as well as for the MRSA strain USA300 (grey bars). Impaired stress tolerance in the presence of the inhibitor is another indication that PD-0184264 directly targets the kinase PknB, which is an important mediator of stress resistance. In summary, the data provide strong circumstantial evidence, that PD-0184264 elicits its antibacterial action by inhibition of the bacterial kinase PknB.

[5] = tested on: MRSA strain USA300; assay: as above; assay type: cell-based, Staphylococcus aureus; details: 20 μM over night, then 42° C. for 6 h, MRSA USA300, vs solvent
Protocol: as §2

[6] = tested on: S. aureus 6850; assay: Time-of-addition assay, bacterial titers at 0, 3 and 6 h, then medium exchange; assay type: cell-based, Staphylococcus aureus
[7] = tested on: MRSA strain S. aureus (USA300); assay: Cell-free culture bacterial growth (OD600)
Protocol: Bacterial growth was monitored for 360 minutes.
MRSA bacteria were incubated with different concentrations of the MEK inhibitor ranging from 0-100 μM and bacterial growth was monitored six hours after cultivation.

[8] = tested on: H1N1 pdm09; assay: Example 11: lung virus titration assay in infected mice; assay type: in vivo, C57BL/6 mice; details: for virus titer in the lung, control set to 100%: 24 h after infection
Protocol: (A) After H1N1 pdm09 infection female C57BL/6 mice were treated with either 2.8, 8.4 or 25 mg/kg PD-0184264 (left side) or with 25, 75 or 150 mg/Kg […] ([…]) the oral route. 24 hrs after infection the animals were killed and lung was taken to prepare a 10% suspension. Virus titer was determined using the standard method. Virus titer of mice treated with the two MEK-inhibitors were compared to virus titer of mice treated with solvent (Control) alone. Virus tier in the lungs of control mice was set to 100% (black bar). Graphpad Prism 7 software was used to illustrate both figures.
For oral application of 25 mg/kg, 2.5 mg of PD-0184264 were dissolved in 50 μl DMSO (Sigma-Aldrich, Germany) and further diluted with 0.15 ml Cremophor EL (Merck-Millipore, Germany) and 0.8 ml PBS (Gibco, Germany). For application of 8.4 mg/kg and 2.8 mg/kg, 0.84 mg or 0.28 mg PD-0184264 were dissolved with 50 μl DMSO (Sigma-Aldrich, Germany) and further diluted with 0.15 ml Cremophor EL/0.8 ml PBS.
Eight week old female C57Bl/6 mice (Charles River Laboratories, Germany) with a body weight of 21.0-24.0 g at administration were used for antiviral studies. The animals were normally fed. Drinking water was available ad libitum.
Drugs were administrated using a single dosing on test day 1 by oral gavage. The application speed was 15 s per dose with an administration volume of 200 μl.
Mice were sacrificed 24 h post infection and lungs were weighed, transferred into a Lysing Matrix D tube (MP Bio) and BSS was applied in an amount of the 10-fold volume of the lung. Organs were shredded using the FastPrep FP 120 (Savant). To remove the cell debris the homogenates were centrifuged for 15 min at 2000 rpm and the supernatant collected. The determination of virus titer in homogenates was performed using the AVICEL® plaque assay as described previously (Haasbach et al. 2011, Mastrosovich et al. 2006).

Compound: O=C(O)c1ccc(F)c(F)c1Nc1ccc(I)cc1Cl [PD-0184264, 2-(2-chloro-4-iodophenylamino)-N-3,4-difluoro benzoic acid]
- sensitivity of growth (OD600, bacterial titers) [1]: sensitive
- sensitivity of growth (OD600, bacterial titers) [2]: sensitive
- CC50 at 24 h [3]: > 1580 µM
- bacterial growth under heat stress (bacterial titers) [4]: strongly impaired
- bacterial growth under heat stress (bacterial titers) [5]: strongly impaired
- inhibition of bacterial growth, compared with U0126 and gentamicin (0.5 or 2 μg/ml) ([6]; S. aureus 6850, 3 h and 6 h post inoculation): strongest inhibition of bacterial growth
- mode of antibacterial action after medium exchange ([6]; cultures further incubated without substances reached turbidity of solvent culture): bacteriostatic rather than a bactericidal action
- bacterial growth (OD600) ([7]; 50 μM, monitored for 360 minutes, vs solvent DMSO): almost complete absent
- inhibition of bacterial growth (FIG. 3) ([7]; starting at 50 μM, 6 hrs): almost complete inhibition of growth
- virus titer in the lung, control set to 100% ([8]; 2.8 mg/kg oral): approx. 70%
- virus titer in the lung, control set to 100% ([8]; 8.4 mg/kg oral): approx. 20%
- virus titer in the lung, control set to 100% ([8]; 25 mg/kg oral): approx. 10%
- reduction of the virus titer in the lung ([8]; 25 mg/kg, FIG. 18): at least 90%
- fold lower concentration needed to achieve a similar effect as 150 mg/kg CI-1040 ([8]; oral): 6 fold
